Where a name gives a salt, the structure may show the parent alone.

The values below come from the supplement of paper PMC12137928.

This assay has as its system HCT116. The settings on record: 72 h. The method in brief: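 Four-parameter Hill fits gave IC50 and maximal efficacy. The data were CellTiter-Glo luminescence readings in HCT116 cells, normalized so that vehicle was 0% and positive control was -100%, with pattern correction afterwards.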

With `CC(C)C[C@H](NC(=O)[C@@H](COC(C)(C)C)NC(=O)[C@H](Cc1ccc(O)cc1)NC(=O)[C@H](CO)NC(=O)[C@H](Cc1c[nH]c2ccccc12)NC(=O)[C@H](Cc1cnc[nH]1)NC(=O)[C@@H]1CCC(=O)N1)C(=O)N[C@@H](CCCNC(=N)N)C(=O)N1CCC[C@H]1C(=O)NNC(N)=O` [Goserelin (acetate)], the IC50 cell viability (ICRF193 0 nM) is above 45.8 µM and the IC50 cell viability (ICRF193 200 nM) was above 45.8 µM.
On to `O=C(O)CCCCCCCC(=O)O` [Nonanedioic acid], for which the IC50 cell viability is above 45.8 µM (ICRF193 0 nM) and above 45.8 µM (ICRF193 200 nM).
Regarding `CC(c1cc2ccccc2s1)N(O)C(N)=O` (stereo unspecified) [Zileuton], the IC50 cell viability is above 45.8 µM (ICRF193 0 nM) and above 45.8 µM (ICRF193 200 nM).
`C[C@](N)(Cc1ccc(O)cc1)C(=O)O` [Metyrosine] showed an IC50 cell viability (ICRF193 0 nM) above 45.8 µM and an IC50 cell viability (ICRF193 200 nM) above 45.8 µM.
Molecule `COc1ccc(C(=O)N2CCN(c3ccc4c(c3)CCC(=O)N4)CC2)cc1OC` [Vesnarinone] gave an IC50 cell viability (ICRF193 0 nM) above 45.8 µM and an IC50 cell viability (ICRF193 200 nM) above 45.8 µM.
With `CN(c1nccc(=O)[nH]1)C1CCN(c2nc3ccccc3n2Cc2ccc(F)cc2)CC1` [Mizolastine], the IC50 cell viability is, setting by setting: (ICRF193 0 nM) above 45.8 µM; (ICRF193 200 nM) above 45.8 µM.
For the molecule `CC(=O)OCC(=O)[C@@]1(OC(C)=O)[C@@H](C)C[C@H]2[C@@H]3C[C@H](F)C4=CC(=O)C=C[C@]4(C)[C@@]3(F)[C@@H](O)C[C@@]21C` [Diflorasone diacetate], the IC50 cell viability is above 45.8 µM (ICRF193 0 nM) and above 45.8 µM (ICRF193 200 nM).
`Cc1cc(NS(=O)(=O)c2ccc(N)cc2)no1` [Sulfamethoxazole]: the IC50 cell viability is above 45.8 µM (ICRF193 0 nM) and above 45.8 µM (ICRF193 200 nM).
Take `NC(CO)(CO)CO` [Tromethamine]: the IC50 cell viability is above 45.8 µM (ICRF193 0 nM) and above 45.8 µM (ICRF193 200 nM).
With `Cc1ncc(COP(=O)(O)O)c(C=O)c1O` [Pyridoxal phosphate hydrate], the IC50 cell viability is, setting by setting: (ICRF193 0 nM) above 45.8 µM; (ICRF193 200 nM) above 45.8 µM.
On to `CC(C[N+](C)(C)C)OC(N)=O` (stereo unspecified) [Bethanechol chloride], for which the IC50 cell viability (ICRF193 0 nM) was above 45.8 µM and the IC50 cell viability (ICRF193 200 nM) was above 45.8 µM.
In the case of `NC(=O)c1ncn([C@@H]2O[C@H](CO)[C@@H](O)[C@H]2O)c1N` [Acadesine], the IC50 cell viability is above 45.8 µM (ICRF193 0 nM) and above 45.8 µM (ICRF193 200 nM).
`Cn1c(CCCC(=O)O)nc2cc(N(CCCl)CCCl)ccc21` [Bendamustine] registered an IC50 cell viability (ICRF193 0 nM) above 45.8 µM and an IC50 cell viability (ICRF193 200 nM) above 45.8 µM.
In the case of `Cc1ncc(CO)c(CO)c1O` [Vitamin B6], the IC50 cell viability was above 45.8 µM (ICRF193 0 nM) and above 45.8 µM (ICRF193 200 nM).
For the molecule `CC[C@H]1OC(=O)C[C@@H](O)[C@H](C)[C@@H](O[C@@H]2O[C@H](C)[C@@H](O)[C@H](N(C)C)[C@H]2O)[C@@H](CCN2CCCCC2)C[C@@H](C)C(=O)/C=C/C(C)=C/[C@@H]1CN1CCCCC1` [Tildipirosin], the IC50 cell viability is, setting by setting: (ICRF193 0 nM) above 45.8 µM; (ICRF193 200 nM) above 45.8 µM.
Consider `CC(C)(C)NCC(O)c1ccc(O)c(CO)c1` (stereo unspecified) [Salbutamol], for which the IC50 cell viability reads like this: (ICRF193 0 nM) above 45.8 µM; (ICRF193 200 nM) above 45.8 µM.
With `O=S(=O)(O)OC[C@H]1O[C@@](COS(=O)(=O)O)(O[C@H]2O[C@H](COS(=O)(=O)O)[C@@H](OS(=O)(=O)O)[C@H](OS(=O)(=O)O)[C@H]2OS(=O)(=O)O)[C@@H](OS(=O)(=O)O)[C@@H]1OS(=O)(=O)O` [Sucrose octasulfate, sodium salt], the IC50 cell viability runs as follows: (ICRF193 0 nM) above 45.8 µM; (ICRF193 200 nM) above 45.8 µM.
Regarding `COC(=O)c1cc(Cl)ccc1NS(=O)(=O)C(F)(F)F` [Amidoflumet], the IC50 cell viability runs as follows: (ICRF193 0 nM) above 45.8 µM; (ICRF193 200 nM) above 45.8 µM.
For the molecule `C=CC[C@]1(O)CC[C@H]2[C@@H]3CCC4=CC(=O)CCC4=C3C=C[C@@]21C` [Altrenogest], the IC50 cell viability is, setting by setting: (ICRF193 0 nM) above 45.8 µM; (ICRF193 200 nM) above 45.8 µM.
Regarding `CCOC(=O)c1ccccc1O` [Ethyl salicylate], the IC50 cell viability by setting is: (ICRF193 0 nM) above 45.8 µM; (ICRF193 200 nM) above 45.8 µM.
Consider `CN1CCC(=C2c3ccccc3CCc3cccnc32)CC1` [Azatadine], for which the IC50 cell viability was above 45.8 µM (ICRF193 0 nM) and above 45.8 µM (ICRF193 200 nM).
In turn, `CCCCc1nc(Cl)c(CO)n1Cc1ccc(-c2ccccc2-c2nnn[nH]2)cc1` [Losartan] came in with an IC50 cell viability (ICRF193 0 nM) above 45.8 µM and an IC50 cell viability (ICRF193 200 nM) above 45.8 µM.
For the molecule `O=NN(CCCl)C(=O)NC1CCCCC1` [Lomustine], the IC50 cell viability is above 45.8 µM (ICRF193 0 nM) and above 45.8 µM (ICRF193 200 nM).
In the case of `CCCCCCCCCC(=O)O[C@H]1CC[C@H]2[C@@H]3CCC4=CC(=O)CC[C@]4(C)[C@H]3CC[C@]12C` [Testosterone decanoate], the IC50 cell viability reads like this: (ICRF193 0 nM) above 45.8 µM; (ICRF193 200 nM) above 45.8 µM.
For `CC1=C(/C=C/C(C)=C/C=C/C(C)=C/CO)C(C)(C)CCC1` [RETINOL], the IC50 cell viability (ICRF193 0 nM) was above 45.8 µM and the IC50 cell viability (ICRF193 200 nM) was above 45.8 µM.
`CCN(CCCCOC(=O)c1ccc(OC)c(OC)c1)C(C)Cc1ccc(OC)cc1` (stereo unspecified) [Mebeverine hydrochloride] yielded an IC50 cell viability (ICRF193 0 nM) above 45.8 µM and an IC50 cell viability (ICRF193 200 nM) above 45.8 µM.
Consider `CC(=O)OCC[N+](C)(C)C` [Acetylcholine chloride], for which the IC50 cell viability was above 45.8 µM (ICRF193 0 nM) and above 45.8 µM (ICRF193 200 nM).
With `O=C(O)c1cc(-c2ccc(F)cc2F)ccc1O` [Diflunisal], the IC50 cell viability is above 45.8 µM (ICRF193 0 nM) and above 45.8 µM (ICRF193 200 nM).
As to `CC(C)OC(=O)C(C(=O)OC(C)C)=C1SC=CS1` [Malotilate], the IC50 cell viability by setting is: (ICRF193 0 nM) above 45.8 µM; (ICRF193 200 nM) above 45.8 µM.
Turning to `CC1=C[C@H](O)CC(C)(C)[C@H]1/C=C/C(C)=C/C=C/C(C)=C/C=C/C=C(C)/C=C/C=C(C)/C=C/C1=C(C)C[C@@H](O)CC1(C)C` [Xanthophyll], the IC50 cell viability reads like this: (ICRF193 0 nM) above 45.8 µM; (ICRF193 200 nM) above 45.8 µM.
`C[N+]1(CCCCC[N+]2(C)CCCC2)CCCC1` [Pentolinium bitartrate]: the IC50 cell viability was above 45.8 µM (ICRF193 0 nM) and above 45.8 µM (ICRF193 200 nM).
With `O=C(O)c1ccccc1S` [2-Thiosalicylic acid], the IC50 cell viability reads like this: (ICRF193 0 nM) above 45.8 µM; (ICRF193 200 nM) above 45.8 µM.
Take `CC[C@H]1CN2CC[C@H]1C[C@@H]2[C@@H](O)c1ccnc2ccc(OC)cc12` [Hydroquinidine HCl]: the IC50 cell viability was above 45.8 µM (ICRF193 0 nM) and above 45.8 µM (ICRF193 200 nM).
`OC[C@@H]1NC[C@@H](O)[C@H](O)[C@H]1O` [deoxynorjrimycin(1)] registered an IC50 cell viability (ICRF193 0 nM) above 45.8 µM and an IC50 cell viability (ICRF193 200 nM) above 45.8 µM.
Regarding `O=C1CN(/N=C/c2ccc(-c3ccc([N+](=O)[O-])cc3)o2)C(=O)N1` [Dantrolene sodium], the IC50 cell viability was above 45.8 µM (ICRF193 0 nM) and above 45.8 µM (ICRF193 200 nM).
Regarding `CCn1cc(C(=O)O)c(=O)c2cc(F)c(N3CCNC(C)C3)c(F)c21` (stereo unspecified) [Lomefloxacin hydrochloride], the IC50 cell viability reads like this: (ICRF193 0 nM) above 45.8 µM; (ICRF193 200 nM) above 45.8 µM.
On to `CCCCC(CC)CCC(CC(C)C)OS(=O)(=O)O` (stereo unspecified) [SODIUM TETRADECYL SULFATE], for which the IC50 cell viability by setting is: (ICRF193 0 nM) above 45.8 µM; (ICRF193 200 nM) above 45.8 µM.
Turning to `O=C(Oc1ccccc1C(=O)O)c1ccccc1O` [Salsalate], the IC50 cell viability is above 45.8 µM (ICRF193 0 nM) and above 45.8 µM (ICRF193 200 nM).
